| Compound | melting point [°C] |
| --- | --- |
| CCOC(=O)N1CCc2c(sc3nc(-c4ccc(Cl)cc4)cn23)C1 | 156 to 159 |
| CC1CC2=CC(=O)C=CC2(C)C2C(=O)CC3(C)C(=O)CCC3C12 (stereo not given) | 257 to 259 |
| COc1ccc(S(=O)(=O)NCCc2ccc(C(C)=O)cc2)cc1 | 122 to 123 |
| CCOc1cc(NC(C)=O)c([N+](=O)[O-])cc1C(=O)OC | 110 |
| COc1cc(Nc2c(C#N)cnc3ccc(Br)cc23)c(Cl)cc1Cl | 232 to 234 |
| COc1ccc(Cn2c(S(=O)(=O)Cc3ccc(C)cn3)nc3cscc32)cc1 | 148 to 150 |
| O=C(Nc1nccs1)c1cccc(-c2ccc3c(c2)C(Oc2ccc(Cl)cc2Cl)CC3)c1 (stereo not given) | 180 to 181 |
| C[C@H]1OC(=O)[C@@H](N)[C@@H]1C(=O)O | 196 to 200 |
| CC(C)(Cc1ccc(Cl)cc1)C(O)(Cn1ccnc1)c1ccc(Cl)cc1 (stereo not given) | 174 |
| C[C@H]1[C@H](c2ccccc2)N(C)C(=O)N1C(=O)NC1CCCCC1 (relative stereo) | 108 |
| COc1ccc(Cl)cc1C(=O)NCCc1ccc(CCCCCCCC(=O)O)cc1 | 103 to 106 |
| COc1cccc(-c2nc3n(n2)Cc2cc(OC)c(OC)cc2-3)c1 | 186 to 187 |
| FC(F)(F)c1cc(Br)c2nc(N3CCN(c4ncccc4C(F)(F)F)CC3)[nH]c2c1 | 196 |
| COc1ccc(Br)c(C=C(C#N)C(=O)O)c1OC | 130 to 132 |
| CCOC(=O)CON=c1c2nccc3cccc(c32)n2cccc12 | 134 |
| O=C(N[C@H](Cc1cccc(Oc2ccccc2)c1)[C@@H](O)c1ccc(F)cc1)c1ccc(F)c2ccccc12 (racemic) | 120 to 121 |
| CCOC(=O)c1cn(-c2cccnc2)nc1Cl | 90 to 93 |
| O=[N+]([O-])CC1(SCc2ccccc2)CCC2(CC1)OCCO2 | 121 to 122 |
| COc1ccc2cc(OCc3ccccc3)c(N)cc2c1 | 149 to 151 |
| COc1cc(OC)nc(NC#N)n1 | 202 |
| CN(C)Cc1nc(-c2ncn3c2[C@@H]2CCN2C(=O)c2c-3ccc(F)c2Cl)no1 | 166 to 169 |
| CCNC(C)CCNC(CC(=O)O)C(=O)OC1CCCCC1 (stereo not given) | 124 to 128 |
| CNC(=S)CC(=S)N(c1c(C)cccc1C)C(C)C(=O)OC (stereo not given) | 119 to 121 |
| OCc1cnoc1-c1cc(Cl)ccc1Cl | 51 to 52 |
| COc1ccc(-c2nc(N)c(C(N)=O)nc2-c2ccc(=O)n(C(C)C)c2)cc1 | 244 |
| CC(=O)N[C@@H](C)C(=O)NCCc1ccc(O)c(O)c1 | 200 to 202 |

The next lines start with the values.

| melting point [°C] | Compound |
| --- | --- |
| 218 to 221 | CC(=O)Nc1ccc(OCC(O)CN2CCC(N3CCCNC3=O)CC2)cc1 (stereo not given) |
| 131 to 133 | CC(C)(C)c1ccc(S(=O)(=O)N2CCCC2=O)cc1 |
| 206 to 208 | CN1C(=O)Nc2ccc(Cl)cc2C1(C#CC1(C)CC1)C(F)(F)F (stereo not given) |
| 189 to 192 | Cc1cc([N+](=O)[O-])c(Cl)c([N+](=O)[O-])c1C(=O)O |
| 174 to 175 | COC(=O)NN[C@@H]1c2cc(C#N)ccc2OC(C)(C)[C@H]1O (relative stereo) |
| 31 | CCOC(=O)CCCOc1cccc2c1SCCC2 |
| 141 to 142 | Cc1ccc(S(=O)(=O)c2ccc3c(c2)C(O)C(Br)C(C)(C)O3)cc1 (stereo not given) |
| 206 to 207 | CC1(C)C=C(C(=NC2CC2)NC#N)c2cc([N+](=O)[O-])ccc2O1 |
| 48 | CC(=O)SCC(C(=O)O)C(C)c1ccc(O)cc1 (stereo not given) |
| 112 to 113 | COC(=O)c1c(OC)ccc(NC(=O)C(F)(F)F)c1OC |
| 115 to 118 | CCOC(=O)N1CCN(C2=C(O)C(=O)c3ccccc3C2=O)CC1 |
| 188 | COc1ccc(-c2csc(Nc3ccccc3C(F)(F)F)n2)cc1OC |
| 147 | O=C(NO)[C@H](CNS(=O)(=O)c1ccc(OCC2CC2)cc1)N1CCOCC1 |
| 56 to 59 | CCSC(=O)c1c(C(F)(F)F)nc(C(F)F)c(C(=O)OC)c1NC(C)C |

From a melting point compilation (Tetko et al.; mined from patent text by program, amines drawn as free bases though some values may be those of a salt)
